Assays:
Muscarinic M3 = target: T1, Muscarinic M3 (Homo sapiens, UniProt P20309); experiment: Radioligand binding panel (Table S1); conditions: 10 μM T1-11, n 2
T1 construct: purchased MDS Pharma Services Taiwan

Histamine H2 = target: T2, Histamine H2 (Homo sapiens, UniProt P25021); experiment: Radioligand binding panel (Table S1); conditions: 10 μM T1-11, n 2
T2 construct: purchased MDS Pharma Services Taiwan

[1] = target: T3, Adenosine transporter (ENT1) (Cavia porcellus, UniProt H0V4R7); experiment: Radioligand binding assay; design: species or system guinea pig
T3 construct: Membrane fractions collected from the cerebral cortex of Duncan Hartley derived guinea pigs; tissue MDS Pharma Services Taiwan; host or cells: guinea pig cerebral cortex
T3 sequence (H0V4R7 1-461): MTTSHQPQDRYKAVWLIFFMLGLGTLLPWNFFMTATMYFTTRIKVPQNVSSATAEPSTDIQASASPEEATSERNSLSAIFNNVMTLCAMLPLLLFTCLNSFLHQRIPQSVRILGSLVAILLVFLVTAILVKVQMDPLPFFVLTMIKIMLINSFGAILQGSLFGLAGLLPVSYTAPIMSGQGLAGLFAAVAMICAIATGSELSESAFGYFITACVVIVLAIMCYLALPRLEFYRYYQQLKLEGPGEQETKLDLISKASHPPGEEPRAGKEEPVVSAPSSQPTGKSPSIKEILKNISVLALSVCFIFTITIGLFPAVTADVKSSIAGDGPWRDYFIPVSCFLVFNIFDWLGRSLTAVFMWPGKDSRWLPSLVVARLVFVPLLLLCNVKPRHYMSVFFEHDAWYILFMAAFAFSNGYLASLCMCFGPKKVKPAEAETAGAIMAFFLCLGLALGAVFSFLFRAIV

Adrenergic β 3 = target: T4, Adrenergic β 3 (Homo sapiens, UniProt P13945); experiment: Radioligand binding panel (Table S1); conditions: 10 μM T1-11, n 2
T4 construct: purchased MDS Pharma Services Taiwan
T4 sequence (P13945 whole entry): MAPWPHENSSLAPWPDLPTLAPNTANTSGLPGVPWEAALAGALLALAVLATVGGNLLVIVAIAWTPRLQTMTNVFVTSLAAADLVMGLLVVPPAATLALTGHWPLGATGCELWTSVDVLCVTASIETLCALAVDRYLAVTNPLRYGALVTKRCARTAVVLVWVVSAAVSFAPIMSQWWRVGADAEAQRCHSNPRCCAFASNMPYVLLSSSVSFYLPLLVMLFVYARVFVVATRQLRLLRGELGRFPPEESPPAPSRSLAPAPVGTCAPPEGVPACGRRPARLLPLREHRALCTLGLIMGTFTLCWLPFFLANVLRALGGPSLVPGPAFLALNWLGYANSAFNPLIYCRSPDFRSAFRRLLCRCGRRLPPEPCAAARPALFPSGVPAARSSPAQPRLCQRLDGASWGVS

Opiate δ (OP1, DOP) = target: T5, Opiate δ (OP1, DOP) (Homo sapiens, UniProt P41143); experiment: Radioligand binding panel (Table S1); conditions: 10 μM T1-11, n 2
T5 construct: purchased MDS Pharma Services Taiwan
T5 sequence (P41143 whole entry): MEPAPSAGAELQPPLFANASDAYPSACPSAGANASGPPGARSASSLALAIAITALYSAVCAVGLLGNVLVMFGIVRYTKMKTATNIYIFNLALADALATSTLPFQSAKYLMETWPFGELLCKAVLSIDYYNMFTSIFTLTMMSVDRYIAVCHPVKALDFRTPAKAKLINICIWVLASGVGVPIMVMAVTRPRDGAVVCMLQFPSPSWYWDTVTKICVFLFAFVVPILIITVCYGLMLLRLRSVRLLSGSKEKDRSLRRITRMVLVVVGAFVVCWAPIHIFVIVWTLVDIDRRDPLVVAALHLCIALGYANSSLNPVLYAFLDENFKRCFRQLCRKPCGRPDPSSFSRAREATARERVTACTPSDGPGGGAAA

[2] = target: T6, Serotonin (5-Hydroxytryptamine) 5-HT6 (Homo sapiens, UniProt P50406); experiment: Radioligand binding panel (Table S1); conditions: 10 μM T1-11, n 2
T6 construct: purchased MDS Pharma Services Taiwan
T6 sequence (P50406 whole entry): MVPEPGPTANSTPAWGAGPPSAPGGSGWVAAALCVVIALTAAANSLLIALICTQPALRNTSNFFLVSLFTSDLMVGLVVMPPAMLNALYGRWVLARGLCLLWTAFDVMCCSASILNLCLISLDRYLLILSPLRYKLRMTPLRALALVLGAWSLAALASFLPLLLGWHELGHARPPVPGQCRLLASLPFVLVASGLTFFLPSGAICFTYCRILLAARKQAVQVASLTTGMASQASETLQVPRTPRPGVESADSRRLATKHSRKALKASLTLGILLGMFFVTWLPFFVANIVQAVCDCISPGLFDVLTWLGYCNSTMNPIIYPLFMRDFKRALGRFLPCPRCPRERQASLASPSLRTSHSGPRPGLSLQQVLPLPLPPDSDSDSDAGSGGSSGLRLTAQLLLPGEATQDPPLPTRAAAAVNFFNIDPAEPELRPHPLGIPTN

[3] = target: T7, Serotonin (5-Hydroxytryptamine) 5-HT2C (Homo sapiens, UniProt P28335); experiment: Radioligand binding panel (Table S1); conditions: 10 μM T1-11, n 2
T7 construct: purchased MDS Pharma Services Taiwan

Glutamate, NMDA, Glycine = Glutamate, NMDA, Glycine (Rattus norvegicus, UniProt P35439); experiment: Radioligand binding panel (Table S1); conditions: 10 μM T1-11, n 2
Glutamate, NMDA, Glycine, sequence (P35439 394-800 limits assumed): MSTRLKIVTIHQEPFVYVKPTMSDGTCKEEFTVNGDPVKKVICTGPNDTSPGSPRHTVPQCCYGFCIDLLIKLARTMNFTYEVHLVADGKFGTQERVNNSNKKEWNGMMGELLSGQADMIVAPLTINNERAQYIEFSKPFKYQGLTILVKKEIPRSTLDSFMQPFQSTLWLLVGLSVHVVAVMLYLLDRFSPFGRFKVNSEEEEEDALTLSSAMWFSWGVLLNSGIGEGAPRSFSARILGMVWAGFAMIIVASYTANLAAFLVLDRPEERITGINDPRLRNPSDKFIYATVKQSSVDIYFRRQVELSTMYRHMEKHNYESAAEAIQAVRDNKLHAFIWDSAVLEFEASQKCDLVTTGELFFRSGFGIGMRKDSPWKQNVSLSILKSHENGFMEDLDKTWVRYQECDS

Vasopressin V1B = target: T8, Vasopressin V1B (Homo sapiens, UniProt P47901); experiment: Radioligand binding panel (Table S1); conditions: 10 μM T1-11, n 2
T8 construct: purchased MDS Pharma Services Taiwan

[4] = tested on: Chemokine CXCR1/2 (IL-8, Non-Selective); experiment: Radioligand binding panel (Table S1); design: species or system human; conditions: 10 μM T1-11, n 2
[5] = tested on: Adrenergic α 2, Non-Selective; experiment: Radioligand binding panel (Table S1); design: species or system rat; conditions: 10 μM T1-11, n 2
Glutamate, Kainate = experiment: Radioligand binding panel (Table S1); design: species or system rat; conditions: 10 μM T1-11, n 2
Angiotensin AT2 = target: T9, Angiotensin AT2 (Homo sapiens, UniProt P50052); experiment: Radioligand binding panel (Table S1); conditions: 10 μM T1-11, n 2
T9 construct: purchased MDS Pharma Services Taiwan

Vasopressin V2 = target: T10, Vasopressin V2 (Homo sapiens, UniProt P30518); experiment: Radioligand binding panel (Table S1); conditions: 10 μM T1-11, n 2
T10 construct: purchased MDS Pharma Services Taiwan

A3 adenosine receptor = target: T11, A3 adenosine receptor (Homo sapiens, UniProt P0DMS8); experiment: Radioligand binding assay
T11 construct: host or cells: CHO-K1
T11 sequence (P0DMS8 1-318): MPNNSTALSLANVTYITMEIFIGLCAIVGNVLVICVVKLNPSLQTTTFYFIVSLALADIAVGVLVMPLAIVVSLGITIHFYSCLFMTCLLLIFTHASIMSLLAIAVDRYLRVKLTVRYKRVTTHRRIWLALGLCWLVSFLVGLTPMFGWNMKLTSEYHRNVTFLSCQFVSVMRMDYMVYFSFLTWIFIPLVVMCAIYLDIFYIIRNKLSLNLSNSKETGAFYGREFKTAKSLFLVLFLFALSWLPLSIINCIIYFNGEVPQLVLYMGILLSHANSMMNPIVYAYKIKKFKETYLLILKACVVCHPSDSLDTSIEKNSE

Phosphodiesterase PDE5 = target: T12, Phosphodiesterase PDE5 (Homo sapiens, UniProt O76074); experiment: Radioligand binding panel (Table S1); conditions: 10 μM T1-11, n 2
T12 construct: purchased MDS Pharma Services Taiwan

Dopamine D4.7 = target: T13, Dopamine D4.7 (Homo sapiens, UniProt P21917, INS283GLPPDPCGPDCAPPAPGLPQDPCGPDCAPPAPGLPRGPCGPDCAPPAP/S284G); experiment: Radioligand binding panel (Table S1); conditions: 10 μM T1-11, n 2
T13 construct: purchased MDS Pharma Services Taiwan

Dopamine D3 = target: T14, Dopamine D3 (Homo sapiens, UniProt P35462); experiment: Radioligand binding panel (Table S1); conditions: 10 μM T1-11, n 2
T14 construct: purchased MDS Pharma Services Taiwan

Muscarinic M4 = target: T15, Muscarinic M4 (Homo sapiens, UniProt P08173); experiment: Radioligand binding panel (Table S1); conditions: 10 μM T1-11, n 2
T15 construct: purchased MDS Pharma Services Taiwan
T15 sequence (P08173 whole entry): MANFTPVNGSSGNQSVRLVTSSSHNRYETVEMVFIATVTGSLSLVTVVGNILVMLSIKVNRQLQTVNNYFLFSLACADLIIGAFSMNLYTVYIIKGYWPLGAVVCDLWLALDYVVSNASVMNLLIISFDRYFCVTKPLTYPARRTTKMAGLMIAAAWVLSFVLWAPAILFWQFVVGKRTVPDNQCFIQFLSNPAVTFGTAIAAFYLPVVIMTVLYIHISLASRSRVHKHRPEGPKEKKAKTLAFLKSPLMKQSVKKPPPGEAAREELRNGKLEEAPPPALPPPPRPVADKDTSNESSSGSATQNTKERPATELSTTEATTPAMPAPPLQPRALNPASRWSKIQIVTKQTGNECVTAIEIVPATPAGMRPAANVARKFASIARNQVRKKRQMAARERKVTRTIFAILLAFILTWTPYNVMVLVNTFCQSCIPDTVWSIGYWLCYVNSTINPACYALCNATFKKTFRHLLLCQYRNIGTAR

[6] = target: T16, Prostanoid, Thromboxane A2 (TP) (Homo sapiens, UniProt P21731); experiment: Radioligand binding panel (Table S1); conditions: 10 μM T1-11, n 2
T16 construct: purchased MDS Pharma Services Taiwan
T16 sequence (P21731 whole entry): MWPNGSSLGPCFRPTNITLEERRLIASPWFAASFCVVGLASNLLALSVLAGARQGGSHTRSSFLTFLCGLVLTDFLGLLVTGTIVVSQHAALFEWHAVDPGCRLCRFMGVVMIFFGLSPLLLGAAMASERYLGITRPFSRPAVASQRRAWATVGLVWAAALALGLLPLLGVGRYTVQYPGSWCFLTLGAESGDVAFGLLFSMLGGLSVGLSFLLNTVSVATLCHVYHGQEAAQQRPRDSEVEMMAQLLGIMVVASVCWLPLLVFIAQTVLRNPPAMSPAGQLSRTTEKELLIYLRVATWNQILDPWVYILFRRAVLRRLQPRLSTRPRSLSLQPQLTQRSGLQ

Calcium Channel N-Type = target: T17, Calcium Channel N-Type (Rattus norvegicus, UniProt Q02294); experiment: Radioligand binding panel (Table S1); conditions: 10 μM T1-11, n 2
T17 construct: purchased MDS Pharma Services Taiwan

[7] = tested on: Glycine, Strychnine-Sensitive; experiment: Radioligand binding panel (Table S1); design: species or system rat; conditions: 10 μM T1-11, n 2
Histamine H4 = target: T18, Histamine H4 (Homo sapiens, UniProt Q9H3N8); experiment: Radioligand binding panel (Table S1); conditions: 10 μM T1-11, n 2
T18 construct: purchased MDS Pharma Services Taiwan

[8] = target: T19, Serotonin (5-Hydroxytryptamine) 5-HT1B (Rattus norvegicus, UniProt P28564); experiment: Radioligand binding panel (Table S1); conditions: 10 μM T1-11, n 2
T19 construct: purchased MDS Pharma Services Taiwan
T19 sequence (P28564 whole entry): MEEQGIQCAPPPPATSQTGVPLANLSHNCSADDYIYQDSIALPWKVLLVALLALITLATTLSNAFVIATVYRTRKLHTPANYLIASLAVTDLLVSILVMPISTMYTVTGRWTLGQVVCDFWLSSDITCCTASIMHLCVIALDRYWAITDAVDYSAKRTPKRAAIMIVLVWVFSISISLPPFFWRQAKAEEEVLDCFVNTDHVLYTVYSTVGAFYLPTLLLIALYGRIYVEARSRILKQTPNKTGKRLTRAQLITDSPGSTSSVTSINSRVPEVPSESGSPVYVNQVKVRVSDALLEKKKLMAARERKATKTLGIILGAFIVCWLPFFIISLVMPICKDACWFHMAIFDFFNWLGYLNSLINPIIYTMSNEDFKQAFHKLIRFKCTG

Anaphylatoxin C5a = target: T20, Anaphylatoxin C5a (Homo sapiens, UniProt P21730); experiment: Radioligand binding panel (Table S1); conditions: 10 μM T1-11, n 2
T20 construct: purchased MDS Pharma Services Taiwan
T20 sequence (P21730 whole entry): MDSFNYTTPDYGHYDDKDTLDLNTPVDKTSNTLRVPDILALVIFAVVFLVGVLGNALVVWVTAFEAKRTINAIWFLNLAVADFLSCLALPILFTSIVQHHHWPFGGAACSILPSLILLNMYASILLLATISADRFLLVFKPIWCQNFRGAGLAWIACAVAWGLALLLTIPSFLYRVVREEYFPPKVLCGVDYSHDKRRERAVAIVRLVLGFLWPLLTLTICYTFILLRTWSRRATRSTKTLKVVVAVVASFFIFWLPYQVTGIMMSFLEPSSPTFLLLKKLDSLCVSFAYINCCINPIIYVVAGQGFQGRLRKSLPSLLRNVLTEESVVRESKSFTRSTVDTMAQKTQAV

Imidazoline I2, Central = experiment: Radioligand binding panel (Table S1); design: species or system rat; conditions: 10 μM T1-11, n 2
Phosphodiesterase PDE6 = experiment: Radioligand binding panel (Table S1); design: species or system human; conditions: 10 μM T1-11, n 2
[9] = target: T21, G Protein-Coupled Receptor, GPR8 (Homo sapiens, UniProt P48146); experiment: Radioligand binding panel (Table S1); conditions: 10 μM T1-11, n 2
T21 construct: purchased MDS Pharma Services Taiwan

Bombesin BB1 = target: T22, Bombesin BB1 (Homo sapiens, UniProt P28336); experiment: Radioligand binding panel (Table S1); conditions: 10 μM T1-11, n 2
T22 construct: purchased MDS Pharma Services Taiwan
T22 sequence (P28336 whole entry): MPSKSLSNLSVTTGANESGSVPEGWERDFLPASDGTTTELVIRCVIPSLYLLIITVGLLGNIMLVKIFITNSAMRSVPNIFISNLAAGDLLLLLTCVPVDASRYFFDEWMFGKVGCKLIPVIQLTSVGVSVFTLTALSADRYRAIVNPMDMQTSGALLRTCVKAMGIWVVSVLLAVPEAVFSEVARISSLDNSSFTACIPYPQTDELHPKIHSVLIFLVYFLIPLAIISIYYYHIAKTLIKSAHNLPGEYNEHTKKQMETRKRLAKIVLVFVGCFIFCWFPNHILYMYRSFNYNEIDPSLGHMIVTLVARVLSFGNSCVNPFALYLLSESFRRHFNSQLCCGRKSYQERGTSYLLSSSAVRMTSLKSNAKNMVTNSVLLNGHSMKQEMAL

Chemokine CCR4 = target: T23, Chemokine CCR4 (Homo sapiens, UniProt P51679); experiment: Radioligand binding panel (Table S1); conditions: 10 μM T1-11, n 2
T23 construct: purchased MDS Pharma Services Taiwan
T23 sequence (P51679 whole entry): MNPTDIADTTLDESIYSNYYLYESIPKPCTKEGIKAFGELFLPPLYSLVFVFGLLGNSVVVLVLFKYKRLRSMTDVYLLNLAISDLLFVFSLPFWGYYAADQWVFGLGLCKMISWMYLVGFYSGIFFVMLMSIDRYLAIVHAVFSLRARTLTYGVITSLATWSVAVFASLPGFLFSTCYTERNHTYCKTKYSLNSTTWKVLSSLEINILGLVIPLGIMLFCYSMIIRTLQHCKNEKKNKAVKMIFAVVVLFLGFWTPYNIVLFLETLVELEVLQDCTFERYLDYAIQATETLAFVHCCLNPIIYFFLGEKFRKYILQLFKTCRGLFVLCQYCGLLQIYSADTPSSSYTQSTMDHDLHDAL

[10] = guinea pig cerebral cortex membranes, 3H-NBTI 0.5 nM
[11] = CHO-K1 membranes, 3H-AB-MECA 0.5 nM

T1 sequence (P20309 whole entry): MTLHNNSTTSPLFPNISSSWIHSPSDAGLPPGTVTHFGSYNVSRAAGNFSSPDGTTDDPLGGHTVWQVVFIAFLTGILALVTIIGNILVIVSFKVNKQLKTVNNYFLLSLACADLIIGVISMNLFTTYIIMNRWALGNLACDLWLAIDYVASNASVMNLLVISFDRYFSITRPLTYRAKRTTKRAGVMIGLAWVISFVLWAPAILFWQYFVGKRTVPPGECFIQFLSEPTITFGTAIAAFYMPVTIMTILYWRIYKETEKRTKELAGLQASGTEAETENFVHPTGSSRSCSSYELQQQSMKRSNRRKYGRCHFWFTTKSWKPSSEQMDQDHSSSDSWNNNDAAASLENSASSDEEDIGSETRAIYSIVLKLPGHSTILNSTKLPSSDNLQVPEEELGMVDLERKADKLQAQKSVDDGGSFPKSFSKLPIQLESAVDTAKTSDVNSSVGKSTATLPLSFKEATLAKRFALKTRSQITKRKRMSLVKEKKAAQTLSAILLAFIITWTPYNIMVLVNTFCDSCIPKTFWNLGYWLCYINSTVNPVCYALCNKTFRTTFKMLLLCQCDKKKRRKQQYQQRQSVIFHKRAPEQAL
T2 sequence (P25021 whole entry): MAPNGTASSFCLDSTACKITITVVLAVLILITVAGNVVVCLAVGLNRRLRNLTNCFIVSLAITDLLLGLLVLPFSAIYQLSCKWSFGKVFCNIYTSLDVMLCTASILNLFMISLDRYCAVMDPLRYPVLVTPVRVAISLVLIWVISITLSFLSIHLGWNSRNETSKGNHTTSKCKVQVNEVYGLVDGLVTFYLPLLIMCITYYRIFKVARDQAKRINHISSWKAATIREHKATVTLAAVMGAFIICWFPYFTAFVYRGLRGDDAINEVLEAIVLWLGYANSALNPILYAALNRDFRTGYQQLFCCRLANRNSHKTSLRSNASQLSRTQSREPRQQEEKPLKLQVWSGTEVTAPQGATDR

Work on `OC[C@H]1O[C@@H](n2cnc3c(NCc4ccc(O)cc4)ncnc32)[C@H](O)[C@@H]1O` [T1-11, N ^6-(4-hydroxybenzyl)adenine riboside] yielded an inhibition at 10 µM (Muscarinic M3) of -6%, an inhibition at 10 µM (Histamine H2) of -10% and an inhibition at 10 µM ([1]; 10 μM T1-11, n 2) of 84%. The IC50 [1, 10] was 1570 nM, the Ki [1, 10] was 540 nM and the inhibition at 10 µM (Adrenergic β 3) was -1%. For the same molecule, the inhibition at 10 µM (Opiate δ (OP1, DOP)) was 19%, the inhibition at 10 µM [2] was 12% and the inhibition at 10 µM [3] was 27%. The inhibition at 10 µM (Glutamate, NMDA, Glycine) was 7%, the inhibition at 10 µM (Vasopressin V1B) was -18% and the “% Inhibition” value [4] was 10%. For the same molecule, the “% Inhibition” value [5] was 2%, the “% Inhibition” value (Glutamate, Kainate) was 11% and the inhibition at 10 µM (Angiotensin AT2) was 3%. It also gave an inhibition at 10 µM (Vasopressin V2) of -5%, an inhibition at 10 µM (A3 adenosine receptor; 10 μM T1-11, n 2) of 103% and an IC50 (A3 adenosine receptor; [11]) of 110 nM. For the same molecule, the Ki (A3 adenosine receptor; [11]) was 100 nM, the inhibition at 10 µM (Phosphodiesterase PDE5) was 4% and the inhibition at 10 µM (Dopamine D4.7) was 3%. It also gave an inhibition at 10 µM (Dopamine D3) of -7%, an inhibition at 10 µM (Muscarinic M4) of 9% and an inhibition at 10 µM [6] of 1%. For the same molecule, the inhibition at 10 µM (Calcium Channel N-Type) was 1%, the “% Inhibition” value [7] was 10% and the inhibition at 10 µM (Histamine H4) was 8%. For the same molecule, the inhibition at 10 µM [8] was 3%, the inhibition at 10 µM (Anaphylatoxin C5a) was 2% and the “% Inhibition” value (Imidazoline I2, Central) was 3%. The “% Inhibition” value (Phosphodiesterase PDE6) was 21%, the inhibition at 10 µM [9] was 15% and the inhibition at 10 µM (Bombesin BB1) was -5%. It also gave an inhibition at 10 µM (Chemokine CCR4) of 5%.

Reference: paper PMC3119665, “A New Drug Design Targeting the Adenosinergic System for Huntington's Disease” (PLoS ONE, 2011)
